Among the data in PubChem BioAssay AID586 (The Scripps Research Institute Molecular Screening Center, 2007) are IC50 values, retold here.

Activity calls are given as the source filed them. No rule for the calls is given here.

The test concerns antigen receptor-induced NF-kappaB activation reporter, cells. Put plainly: NF-kB reporter activation blockers, potency – cell-based, dose response (AID 586).

As usually defined, the IC50 is the concentration needed to halve the response being measured.

On to `O=C(Cc1cccs1)Nc1nc2c(s1)CCCC2`, for which the 50% inhibitory concentration (IC50) is 2.65 µM.

As to `N#CC1=C2SCC(O)(c3ccccc3)N2C(=O)CC1c1cccs1` (stereo unspecified), the IC50 was 5.02 µM.

On to `COc1cc(NC(=O)c2cccc3c2C(=O)N(Cc2cccnc2)C3)cc(OC)c1OC`, for which the IC50 is 1.18 µM.

As to `CCCOc1c(OC)cccc1C1CC(=O)Nc2cc(OC)c(OC)c(OC)c21` (stereo unspecified), the IC50 was > 30 µM (inactive).

Regarding `c1ccc(-c2noc(-c3ccc4c(c3)OCO4)n2)nc1`, the IC50 is > 30 µM (inactive).

Consider `COc1cccc(-c2nnc3n2N=C(C(C)(C)C)CS3)c1`, for which the half-maximal inhibitory concentration (IC50) was 3.28 µM.
